Values quoted from earlier work as cited in US20130224131A1, “4-AMIDINO BENZYLAMINES FOR COSMETIC AND/OR DERMATOLOGICAL USE” (DSM IP ASSETS B.V., priority 2007, published 2013).

Molecular target: urokinase (Homo sapiens, UniProt P00749)
Conditions: qualitative statement, described in WO 01/96286

SMILES: N=C(N)c1ccc(CNC(=O)CNC(=O)[C@@H](CO)NS(=O)(=O)Cc2ccccc2)cc1 [benzylsulfonyl-D-Ser-Gly-4-amidino-benzylamide]
- urokinase-inhibiting activity: potent and highly specific urokinase-inhibiting activity

SMILES: N=C(N)c1ccc(CNC(=O)[C@H](CCCCN)NC(=O)[C@@H](CO)NS(=O)(=O)Cc2ccccc2)cc1 [benzylsulfonyl-D-Ser-Lys-(4-amidino-benzylamide)]
- urokinase-inhibiting activity: potent and highly specific urokinase-inhibiting activity

SMILES: N=C(N)c1ccc(CNC(=O)C(CCc2ccccc2)NC(=O)[C@@H](CO)NS(=O)(=O)Cc2ccccc2)cc1 (stereo partly drawn) [benzylsulfonyl-D-Ser-homoPhe-(4-amidino-benzylamide)]
- urokinase-inhibiting activity: potent and highly specific urokinase-inhibiting activity
